In patent publication US10760052B2, “Method of inhibiting tau phosphorylation” (priority 2012, dated 2020):
pKd: −log10 of the molar value.

Legend:
Aβ42-α7nAChR complexes = experiment: Postmortem human frontal cortex: Aβ42-α7nAChR complexes; assay type: cell-based; settings: AD and Aβ42-treated control tissue; 0.1 and 1 nM
Protocol: Postmortem frontal cortex tissues were gradually thawed (from −80° C. to −20° C.) and were sliced using a chilled McIlwain tissue chopper (200 μm×200 μm×3 mm). […] Following two additional washes with 1 ml of ice-cold K-R, brain slices were suspended in 1 ml of K-R.
Incubation continued for 1 hour in the dark to minimize light destruction of the test agents. […] Reaction was terminated by the addition of 1.5 ml of ice-cold Ca^2+-free K-R. Tissue slices were harvested by a brief centrifugation and used as the tissue sources for various assays.

insulin receptor (IR) [1] = experiment: IR activation and signaling (pY1150/1151 IRβ, IRS-1) in slice cultures; assay type: cell-based, rat; settings: insulin stimulation
Protocol: IR activation and signaling was initiated by incubation of 6 slices that were further chopped horizontally into 100 μm (100 μm×200 μm×3 mm) with either KR (basal) or KR containing 1 nM insulin at 37° C. for 30 minutes. […] Ligand stimulation was terminated by the addition of 1 ml of ice-cold Ca^2+-free K-R containing mixture of protein phosphatase inhibitors, 0.5 mM EGTA and 0.1 mM EDTA. Brain slices were harvested by a brief centrifugation and were homogenized in 0.25 ml of ice-cold immunoprecipitation buffer. The homogenates were centrifuged at 1000×g for 5 minutes (4° C.) and the supernatant (post-mitochondrial fraction) was sonicated for 10 seconds on ice. […] The resultant lysates were then cleared by centrifugation at 50,000×g for 5 minutes and diluted with 0.75 ml of immunoprecipitation buffer. Protein concentrations were measured by Bradford method (Bio-Rad).
In these experiments, brain slice lysates (100 μg) were immunoprecipitated overnight (about 18 hours) at 4° C. with 2 μg of immobilized anti-IRβ onto covalently conjugated protein A-agarose beads (Pierce-ENDOGEN). […]

NMDAR [2] = experiment: Levels of signaling molecules associated with NMDAR (NR1) in slice cultures; assay type: cell-based, rat; settings: 0.1 μM Aβ42
Protocol: NMDAR activation and signaling was initiated by incubation of 6 slices with either 0.3 mM Mg^2+ containing KR (LMKR; basal) or LMKR containing 10 μM NMDA and 1 μM glycine at 37° C. for 30 minutes.
Ligand stimulation was terminated by the addition of 1 ml of ice-cold Ca^2+-free K-R containing mixture of protein phosphatase inhibitors, 0.5 mM EGTA and 0.1 mM EDTA. Brain slices were harvested by a brief centrifugation and were homogenized in 0.25 ml of ice-cold immunoprecipitation buffer. The homogenates were centrifuged at 1000×g for 5 minutes (4° C.) and the supernatant (post-mitochondrial fraction) was sonicated for 10 seconds on ice.
The resultant lysates were cleared by centrifugation at 50,000×g for 5 minutes and diluted with 0.75 ml of immunoprecipitation buffer. Protein concentrations were measured by Bradford method (Bio-Rad).
To determine the association of NMDARs with PSD-95, as well as NMDAR signaling, the levels of NMDAR subunits, PSD-95 and NMDAR-associated signaling molecules were measured in anti-NR1 immunoprecipitates. In these studies, brain slice lysates (100 μg) were immunoprecipitated overnight at 4° C. with 2 μg of immobilized anti-NR1 onto covalently conjugated protein A-agarose beads (Pierce-ENDOGEN). […]

[3] = system: voltage-gated Ca2+ channel mediated Ca2+ influx; assay type: in vivo, mouse; settings: 10 mg/kg twice daily
NFT and Aβ42 aggregates [4] = experiment: Immunohistochemistry of NFT and Aβ42 aggregates in slice cultures; assay type: cell-based, rat; settings: slice cultures incubated with Aβ42
Protocol: For immunohistochemistry, additional slices were removed and fixed in 4% paraformaldehyde in PBS at 4° C.
(§1) One section was immunostained with anti-NFT or -PHF.
Specimens were examined using a Nikon FXA microscope with a Princeton Instruments CCD camera and recorded digitally.
(§2) The correlations between the amount of NFT/PHF immunoreactivity and Aβ42-positive material accumulated within mature neurons were also determined.

IL-6, TNF-α and IL-1β = experiment: ICV Aβ42 infusion mouse model: cytokine levels (fluorescence ELISA); assay type: in vivo
Protocol: Following centrifugation, the resultant lysate was then dilute with 500 μl (total volume 600 μl) and used as the source of cytokines.
Plates were washed 3 times with ice-cold 50 mM Tris HCl (pH 7.4) and incubated at 30° C. with 100 μl of lysate derived from the above mentioned tissues for 1 hour.
Plates were washed 3 times with ice-cold 50 mM Tris HCl (pH 7.4) and incubated at 30° C. with 0.5 μg/well un-conjugated rabbit anti-TNF-α, anti-IL-6 and anti-IL-1β for 1 hour. After two washes with 50 mM Tris HCl (pH 7.4), each well was incubated in 0.5 μg/well FITC-conjugated anti-rabbit IgG (human and mouse absorbed) for 1 hour at 30° C. Plates were washed twice with 200 μl ice-cold Tris HCl, pH 7.4 and the residual FITC signals were determined by multimode plate reader, DTX880 (Beckman). Each lysate was surveyed twice.

[5] = system: α7nAChR (Aβ42-α7nAChR interaction); experiment: Aβ42 affinity for α7nAChR in biotinylated synaptic membranes from postmortem frontal cortices; assay type: binding, human
Description: FIG. 27 in two panels illustrates that Compound C0105 reduces affinity of the Aβ42-α7nAChR interaction. […] Data are means±SEM. n=11 for postmortem control tissue; n=6 for SK-N-MC cells.

NMDAR [6] = assay type: in vivo, mouse; settings: 10 mg/kg twice daily
insulin receptor (IR) [7] = experiment: Postmortem human frontal cortex: IR activation and signaling; assay type: cell-based; settings: AD and Aβ42-treated control brain slices; 1 nM
Protocol: IR activation and signaling were initiated by incubation of approximately 10 mg of in vitro treated brain slices with either KR (basal) or KR containing 1 nM insulin at 37° C. for 30 minutes. […] Ligand stimulation was terminated by the addition of 1 ml of ice-cold Ca^2+-free K-R containing 0.5 mM EGTA and 0.1 mM EDTA. Brain slices were harvested by a brief centrifugation and were homogenized in 0.25 ml of ice-cold immunoprecipitation buffer. The homogenates were centrifuged at 1000×g for 5 minutes (4° C.) and the supernatant (post-mitochondrial fraction) is sonicated for 10 seconds on ice. […] The resultant lysates are then cleared by centrifugation at 50,000×g for 5 minutes and diluted with 0.75 ml of immunoprecipitation buffer. Protein concentrations are measured by Bradford method (Bio-Rad).
The blots were stripped and re-probed with anti-IRβ to assess the loading as appropriate.

α7nAChR (Aβ42 binding) = experiment: FITC-Aβ42 binding to biotinylated α7nAChR-containing SK-N-MC cell fragments; parameters: species or system human; settings: added simultaneously, 30° C., 30 minutes
[8] = system: tau (pSerine202, pThreonine231, pThreonine181); experiment: LPS-induced tau phosphorylation in postmortem human hippocampal slices; assay type: cell-based; settings: 1 nM compound, 1 hour
Protocol: The three phosphoepitopes of tau were detected in immunoprecipitates using specific antibodies using Western blots (WB).
The slices are carefully separated in 10 ml of oxygenated ice-cold dissection medium with two pairs of fine forceps and gentle shaking.
The reaction was terminated by diluting with 1.5 ml of ice-cold 1 mM EDTA-containing Ca^2+-free Kreb's-Ringer and centrifuged for 10 minutes at 15,000×g (4° C.).
After removal of the supernatant, the slices were homogenized to prepare post-mitochondrial (P2) fraction.
The anti-tau immunocomplexes were enriched by incubation with 50 μl of protein A/G-conjugated agarose beads at 4° C. and centrifugation.

NMDAR [9] = assay type: cell-based, rat; settings: slice cultures, 0.1 μM Aβ42
[10] = system: tau (pSer202, pThr231, pThr181); experiment: ICV Aβ42 infusion mouse model: tau phosphorylation; assay type: in vivo; settings: 10 mg/kg twice daily
Protocol: The levels of phosphorylated tau (pSer202tau, pThr231tau and pThr181tau) as well as total tau precipitated (loading controls) were assessed by Western blotting using specific antibodies directed against each of the phosphoepitopes and the anti-tau, respectively.

NMDAR [11] = experiment: Postmortem human frontal cortex: NMDAR signaling and association with PSD-95; assay type: cell-based; settings: AD brain slices, 1 nM, one hour incubation
Protocol: NMDAR activation and signaling were initiated by incubation of approximately 10 mg of in vitro treated brain slices with either LMKR (basal) or LMKR containing 10 μM NMDA and 1 μM glycine at 37° C. for 30 minutes. […] Ligand stimulation was terminated by the addition of 1 ml of ice-cold Ca^2+-free K-R containing 0.5 mM EGTA and 0.1 mM EDTA.
Brain slices were harvested by a brief centrifugation and were homogenized in 0.25 ml of ice-cold immunoprecipitation buffer. The homogenates were centrifuged at 1000×g for 5 minutes (4° C.) and the supernatant (post-mitochondrial fraction) is sonicated for 10 seconds on ice. […] The resultant lysates are then cleared by centrifugation at 50,000×g for 5 minutes and diluted with 0.75 ml of immunoprecipitation buffer. Protein concentrations are measured by Bradford method (Bio-Rad).
To determine the NMDAR signaling and the NMDAR complexes association with PSD-95 [also known as Disks large homolog 4 (DLH4)], the levels of NMDAR subunits, PSD-95 and NMDAR-associated signaling molecules were measured in anti-NR1 immunoprecipitates.
In these studies, brain slice lysates (200 μg) were immunoprecipitated overnight (about 18 hours) at 4° C. with 2 μg of immobilized anti-NR1 onto covalently conjugated protein A-agarose beads (Pierce-ENDOGEN). […]

ERK2 = experiment: Aβ42-induced ERK2 activation (pERK2) in rat frontal cortical synaptosomes; assay type: cell-based; settings: simultaneous treatment
Protocol: FIG. 3 in two panels as FIG. 3A and FIG. 3B, illustrates that FLNA-binding compounds reduce Aβ-induced α7nAChR-mediated ERK2 signaling. In the same treated synaptosomes used in FIG. 2, levels of phosphorylated (activated) ERK2 were measured in immunoprecipitates of ERK2. […] Immunoprecipitates were determined by Western blotting (FIG. 3A) and quantified for four compounds by densitometry (FIG. 3B). n=3.
Phosphorylation of ERK2 indicates its activation, which leads to tau phosphorylation.

TLR4-FLNA complex = biological target: T1, TLR4-FLNA complex (Mus musculus, UniProt Q8BTM8); experiment: ICV Aβ42 infusion mouse model: FLNA association with TLR4; assay type: in vivo; settings: 10 mg/kg twice daily; prefrontal cortex and hippocampus
T1 construct: from tissue; host or cells: synaptosomes from prefrontal cortex and hippocampus of treated E129 mice
Protocol: . The anti-FLNA immunocomplexes were obtained by centrifugation, washed and dissociated using antigen elution buffer. […] The levels of FLNA-associated α7nAChRs and TLR4s were assessed by Western blotting and the blot stripped and re-probed for FLNA for immunoprecipitation/loading control.

[12] = system: tau (pSer202, pThr231, pThr181); experiment: Tau phosphorylation in organotypic frontocortical slice cultures; assay type: cell-based, rat; settings: C0105 0.1, 1, 10 nM; C0114 1, 10 nM; simultaneous with Aβ42
Protocol: On the day of study, medium was removed, the brain slices rinsed and incubated in 0.1% FBS-containing medium for 4 hours at 36° C. in 5% CO2.
The levels of phosphorylated tau (pSer202tau, pThr231tau and pThr181tau) as well as total tau precipitated (loading controls) are assessed by Western blotting using specific antibodies directed against each of the phosphoepitopes and the anti-tau, respectively.

insulin receptor (IR) [13] = experiment: ICV Aβ42 infusion mouse model: IR signaling; assay type: in vivo; settings: 10 mg/kg twice daily
Protocol: IR activation and signaling was initiated by incubation of tissue with either K-R (basal) or K—R containing 1 nM insulin at 37° C. for 30 minutes. […] Ligand stimulation was terminated by the addition of 1 ml of ice-cold Ca^2+-free K-R containing mixture of protein phosphatase inhibitors, 0.5 mM EGTA and 0.1 mM EDTA.
Tissues were briefly centrifuged and homogenized in 0.25 ml of ice-cold immunoprecipitation buffer. The homogenates were centrifuged at 1000×g for 5 minutes (4° C.) and the supernatant (post-mitochondrial fraction) was sonicated for 10 seconds on ice. […] The resultant lysates were then cleared by centrifugation at 50,000×g for 5 minutes and diluted with 0.75 ml of immunoprecipitation buffer. Protein concentrations were measured by Bradford method (Bio-Rad).
In these studies, brain tissue lysates (100 μg) were immunoprecipitated overnight (about 18 hours) at 4° C. with 2 μg of immobilized anti-IRβ onto covalently conjugated protein A-agarose beads (Pierce-ENDOGEN).
Anti-IRβ immunoprecipitates were incubated with 75 μl antigen elution buffer (Pierce-ENDOGEN) and 2% SDS for 2 minutes on ice, centrifuged to remove antibody-protein A-agarose complexes and neutralized immediately with 10 μl 1.5 M Tris buffer, pH 8.8 followed by addition of 65 μl 2× PAGE sample buffer and boiled for 5 minutes. […]

NFT and Aβ42 aggregates [14] = experiment: ICV Aβ42 infusion mouse model: immunohistochemistry of NFT and Aβ42 aggregates; assay type: in vivo; settings: 10 mg/kg twice daily
Protocol: as §1
Brain tissues were fixed at 4° C. in 0.15 M phosphate-buffered 10% formalin, pH 7.4 for 2 weeks, paraffin embedded, serially sectioned at 5 μm, and processed for brightfield immunohistochemistry as described. The […] but not Aβ42-1. Specimens were examined using a Nikon FXA microscope with a Princeton Instruments CCD camera and recorded digitally.
as §2

α7nAChR = settings: mouse, in vivo

T1 sequence (Q8BTM8 2-2647, one chain of several): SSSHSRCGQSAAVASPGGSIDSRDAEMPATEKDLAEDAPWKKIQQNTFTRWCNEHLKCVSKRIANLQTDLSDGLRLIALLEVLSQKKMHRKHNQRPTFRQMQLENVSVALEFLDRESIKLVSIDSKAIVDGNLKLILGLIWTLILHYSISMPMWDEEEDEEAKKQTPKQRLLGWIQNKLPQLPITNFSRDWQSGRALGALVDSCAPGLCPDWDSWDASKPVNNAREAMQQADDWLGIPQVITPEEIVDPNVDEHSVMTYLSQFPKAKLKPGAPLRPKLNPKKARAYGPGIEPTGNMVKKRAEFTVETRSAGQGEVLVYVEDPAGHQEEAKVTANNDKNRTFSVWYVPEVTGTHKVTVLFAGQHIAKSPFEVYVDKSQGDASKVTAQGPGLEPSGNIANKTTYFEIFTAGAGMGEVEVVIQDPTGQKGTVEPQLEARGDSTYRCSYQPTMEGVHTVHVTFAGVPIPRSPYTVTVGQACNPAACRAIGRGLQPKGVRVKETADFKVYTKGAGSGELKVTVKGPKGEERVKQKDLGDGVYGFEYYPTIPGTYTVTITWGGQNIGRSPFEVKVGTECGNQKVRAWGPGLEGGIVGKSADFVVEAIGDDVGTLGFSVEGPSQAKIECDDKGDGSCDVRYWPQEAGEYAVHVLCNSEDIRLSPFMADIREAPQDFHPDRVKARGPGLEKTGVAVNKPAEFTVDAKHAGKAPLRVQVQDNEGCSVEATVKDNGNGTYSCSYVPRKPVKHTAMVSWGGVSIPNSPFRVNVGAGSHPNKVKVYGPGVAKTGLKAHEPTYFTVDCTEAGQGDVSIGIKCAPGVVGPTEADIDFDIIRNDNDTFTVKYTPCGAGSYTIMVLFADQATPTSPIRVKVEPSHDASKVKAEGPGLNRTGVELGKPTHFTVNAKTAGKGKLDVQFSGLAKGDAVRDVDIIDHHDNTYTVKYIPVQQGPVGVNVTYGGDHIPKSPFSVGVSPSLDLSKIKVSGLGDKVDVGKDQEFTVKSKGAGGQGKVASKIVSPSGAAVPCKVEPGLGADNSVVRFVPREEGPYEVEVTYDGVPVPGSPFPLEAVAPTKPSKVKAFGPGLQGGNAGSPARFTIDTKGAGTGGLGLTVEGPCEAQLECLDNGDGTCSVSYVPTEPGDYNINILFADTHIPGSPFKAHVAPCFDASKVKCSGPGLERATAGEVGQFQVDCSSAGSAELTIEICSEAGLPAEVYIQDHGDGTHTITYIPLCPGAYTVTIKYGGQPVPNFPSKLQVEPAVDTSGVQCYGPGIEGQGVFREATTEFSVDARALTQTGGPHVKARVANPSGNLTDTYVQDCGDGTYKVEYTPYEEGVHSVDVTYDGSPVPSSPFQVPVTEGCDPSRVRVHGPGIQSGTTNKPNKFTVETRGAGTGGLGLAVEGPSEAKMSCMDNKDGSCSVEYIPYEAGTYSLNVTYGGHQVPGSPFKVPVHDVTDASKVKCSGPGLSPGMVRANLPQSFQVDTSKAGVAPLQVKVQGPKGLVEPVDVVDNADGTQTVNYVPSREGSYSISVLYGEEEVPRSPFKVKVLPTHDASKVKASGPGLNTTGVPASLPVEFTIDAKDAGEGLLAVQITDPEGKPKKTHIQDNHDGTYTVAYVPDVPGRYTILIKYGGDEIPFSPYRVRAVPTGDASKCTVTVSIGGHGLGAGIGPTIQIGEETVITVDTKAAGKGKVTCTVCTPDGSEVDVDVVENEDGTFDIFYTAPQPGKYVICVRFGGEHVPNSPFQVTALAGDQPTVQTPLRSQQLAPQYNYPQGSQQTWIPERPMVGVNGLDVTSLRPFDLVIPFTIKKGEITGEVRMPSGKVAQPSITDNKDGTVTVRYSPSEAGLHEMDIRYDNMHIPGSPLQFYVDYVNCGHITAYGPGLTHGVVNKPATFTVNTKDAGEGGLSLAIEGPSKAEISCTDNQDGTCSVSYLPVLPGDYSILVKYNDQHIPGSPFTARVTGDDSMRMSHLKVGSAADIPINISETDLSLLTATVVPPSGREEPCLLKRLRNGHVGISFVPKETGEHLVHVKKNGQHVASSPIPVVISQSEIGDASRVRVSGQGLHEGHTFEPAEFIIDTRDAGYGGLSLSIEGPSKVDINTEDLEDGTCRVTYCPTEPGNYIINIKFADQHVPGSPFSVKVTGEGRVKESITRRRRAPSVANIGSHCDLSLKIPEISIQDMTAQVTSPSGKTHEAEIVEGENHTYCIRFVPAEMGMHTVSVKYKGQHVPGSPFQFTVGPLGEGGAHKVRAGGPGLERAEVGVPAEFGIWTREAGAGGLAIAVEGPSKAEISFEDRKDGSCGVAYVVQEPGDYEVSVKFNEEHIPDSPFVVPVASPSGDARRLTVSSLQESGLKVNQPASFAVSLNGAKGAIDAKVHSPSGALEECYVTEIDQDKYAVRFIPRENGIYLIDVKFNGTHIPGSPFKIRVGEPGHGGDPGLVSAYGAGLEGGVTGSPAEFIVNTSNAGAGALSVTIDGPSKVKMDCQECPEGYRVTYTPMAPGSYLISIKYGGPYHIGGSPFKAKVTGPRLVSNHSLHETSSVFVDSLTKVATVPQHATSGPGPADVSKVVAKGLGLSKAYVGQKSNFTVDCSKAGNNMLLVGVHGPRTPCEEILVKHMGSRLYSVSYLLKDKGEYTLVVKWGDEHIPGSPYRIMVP

CN1CCC2(CC1)NCC(=O)N2Cc1ccccc1 [Compound C0105]
Aβ42-α7nAChR complexes (Aβ42-α7nAChR complexes): reduces Aβ42-α7nAChR complexes | Aβ42-induced IR signaling impairments (IRS-1 association, pY1150/1151 IRβ) (insulin receptor (IR) [1]): normalized the signaling impairments | Levels of six signaling molecules associated with NR1 after NMDA and glycine (NMDAR [2]): fully restored function | K+-evoked calcium influx [3]: restored it | Aβ42 aggregates immunostaining (NFT and Aβ42 aggregates [4]): dramatically reduces | NFT immunostaining (pTau) (NFT and Aβ42 aggregates [4]): dramatically reduces | Aβ42-induced IL-6 production (IL-6, TNF-α and IL-1β; 10 mg/kg twice daily): completely abolished | Suppression of IL-1β level (IL-6, TNF-α and IL-1β; 10 mg/kg twice daily): 80% | Suppression of TNF-α level (IL-6, TNF-α and IL-1β; 10 mg/kg twice daily): 86% | Decrease of levels of IL-6, TNF-α and IL-1 (IL-6, TNF-α and IL-1β; mice receiving C0105): 80-100% | Reduction of affinity of the Aβ42-α7nAChR interaction ([5]; FIG. 27: postmortem tissue and SK-N-MC cells): 1,000-10,000 fold | Reduction of Aβ42 binding affinity for α7nAChR ([5]; postmortem control tissue, biotinylated synaptic membranes, n=11): 1000 fold | pKd ([5]; read-out: Aβ42 binding affinity for α7nAChR after Compound C0105 incubation, postmortem control tissue): 7.80 | Aβ42-induced NMDAR dysfunction (calcium influx after NMDA and glycine) (NMDAR [6]): restored the Aβ42-induced NMDAR dysfunction | IR signaling assemblies (insulin receptor (IR) [7]): Normalization of receptor function | Inhibition of FITC-Aβ42 binding (α7nAChR (Aβ42 binding); 0.1 nM compound): 52.3±3.7% | Inhibition of FITC-Aβ42 binding (α7nAChR (Aβ42 binding); 1 nM compound): 55.1±3.0% | Inhibition of FITC-Aβ42 binding (α7nAChR (Aβ42 binding); 10 nM compound): 56.5±4.2% | LPS-induced tau phosphorylation [8]: reduces LPS-induced tau phosphorylation | Aβ42-induced impairment in NMDAR function (calcium influx after NMDA and glycine) (NMDAR [9]): completely prevented by 1 and 10 nM | Tau phosphorylation at three sites [10]: suppressed tau phosphorylation at all three phosphorylation sites | NMDAR signaling impairment (six measures) (NMDAR [11]): normalized all six measures | ERK2 activation (pERK2) (ERK2): greatly suppressed | Aβ42-induced increase in FLNA association with TLR4 (TLR4-FLNA complex): reduced Aβ42-induced increases in FLNA associations with both α7nAChR and TLR4 | Aβ42-induced tau phosphorylation [12]: reduced tau phosphorylation at all three phosphorylation sites | IR signaling (IRβ phosphorylation, IRS-1 association) (insulin receptor (IR) [13]): restored | Amyloid deposits (IHC, FCX and HP) (NFT and Aβ42 aggregates [14]): prevents | NFT formation (IHC, FCX and HP) (NFT and Aβ42 aggregates [14]): prevents | Aβ42-induced reduction in calcium influx after PNU282987 (α7nAChR): normalized
